Where “and” joins values, the source holds several entries; their conditions need not be identical. Identical values can stand only once. Inconclusive results and toxic doses are left out.
System: BDF1 mice, B16 melanoma ip, median survival T/C
Experiment: NCI In Vivo Anticancer Drug Screen. Data for tumor model B16 Melanoma (intraperitoneal) in B6D2F1 (BDF1) mice
Conditions: endpoint: median survival time, higher = longer survival
Outline: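 Read-out: survival or tumor size, given as treated/control ratio. Controls received vehicle only; animals bore transplantable tumors.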

[1] = dose: 100.0 mg/kg/injection, schedule: Q04DX003 (ip), vehicle: saline with Tween-80
[2] = dose: 200.0 mg/kg/injection, schedule: Q04DX003 (ip), vehicle: saline with Tween-80
[3] = dose: 6.25 mg/kg/injection, schedule: Q01DX009 (ip), vehicle: saline
[4] = dose: 12.5 mg/kg/injection, schedule: Q01DX009 (ip), vehicle: saline
[5] = dose: 25.0 mg/kg/injection, schedule: Q01DX009 (ip), vehicle: saline
[6] = dose: 50.0 mg/kg/injection, schedule: Q01DX009 (ip), vehicle: saline
[7] = dose: 100.0 mg/kg/injection, schedule: Q01DX009 (ip), vehicle: saline
[8] = dose: 100.0 mg/kg/injection, schedule: Q01DX009 (ip), vehicle: Klucel (hydroxypropylcellulose) (HPC)
[9] = dose: 50.0 mg/kg/injection, schedule: Q01DX009 (ip), vehicle: saline with Tween-80
[10] = dose: 100.0 mg/kg/injection, schedule: Q01DX009 (ip), vehicle: saline with Tween-80
[11] = dose: 200.0 mg/kg/injection, schedule: Q01DX009 (ip), vehicle: saline with Tween-80
[12] = dose: 200.0 mg/kg/injection, schedule: Q01DX009 (ip), vehicle: saline
[13] = dose: 5.0 mg/kg/injection, schedule: Q01DX009 (ip), vehicle: Klucel (hydroxypropylcellulose) (HPC)
[14] = dose: 25.0 mg/kg/injection, schedule: Q01DX009 (ip), vehicle: Klucel (hydroxypropylcellulose) (HPC)
[15] = dose: 50.0 mg/kg/injection, schedule: Q01DX009 (ip), vehicle: Klucel (hydroxypropylcellulose) (HPC)

For `O=S(=O)(O)CNc1ccccc1`, the T/C (dose: 100.0 mg/kg/injection, schedule: Q04DX003 (ip), vehicle: saline) was 104 % of control, the T/C (dose: 200.0 mg/kg/injection, schedule: Q04DX003 (ip), vehicle: saline) was 97 % of control and the T/C (dose: 400.0 mg/kg/injection, schedule: Q04DX003 (ip), vehicle: saline) was 106 % of control.

For `OC(Cc1nc(-c2ccccc2)c(-c2ccccc2)s1)(C(F)(F)F)C(F)(F)F`, the T/C [1] was 105 % of control and the T/C [2] was 86 % of control.

For `CC1(C)COCN1COCCOCN1COCC1(C)C`, the T/C [3] was 102 % of control, the T/C [4] was 103 % of control and the T/C [5] was 113 % of control. For the same molecule, the T/C [6] was 118 % of control and the T/C [7] was 120 % of control.

For `NC(=O)Oc1ccccc1`, the T/C [8] was 100 % of control, the T/C [1] was 106 % of control and the T/C (dose: 200.0 mg/kg/injection, schedule: Q01DX009 (ip), vehicle: Klucel (hydroxypropylcellulose) (HPC)) was 100 % of control. For the same molecule, the T/C [2] was 113 % of control and the T/C (dose: 400.0 mg/kg/injection, schedule: Q04DX003 (ip), vehicle: saline with Tween-80) was 110 % of control.

In the case of `CCOC(=O)C(Cc1ccc(O)cc1)Nc1nc2ccccc2o1` (stereo not drawn), the T/C [9] is reported as 103 % of control, the T/C [10] is reported as 106 % of control and the T/C [11] is reported as 106 % of control. For the same molecule, the T/C (dose: 400.0 mg/kg/injection, schedule: Q01DX009 (ip), vehicle: saline with Tween-80) was 96 % of control.

For `Oc1ccccc1N=Cc1ccc(C=Nc2ccccc2O)cc1`, the T/C (dose: 133.0 mg/kg/injection, schedule: Q01DX009 (ip), vehicle: gum acacia) was 88 % of control and the T/C (dose: 200.0 mg/kg/injection, schedule: Q01DX009 (ip), vehicle: gum acacia) was 99 % of control.

`O=C(O)C1(NO)CCCC1` was tested, and the T/C [7] was 87 % of control.

`CC1(C)OC(=O)N(CO)C1=O` was tested, and the T/C [3] was 95 % of control, the T/C [4] was 94 % of control and 109 % of control and the T/C [5] was 94 % of control and 115 % of control. The T/C [6] was 108 % of control and 115 % of control, the T/C [7] was 114 % of control and 115 % of control and the T/C [12] was 109 % of control and 117 % of control.

`COC1CC(C)C(OC)c2cc(O)cc(c2O)NC(=O)/C(C)=C/C=C\C(C)C(OC(N)=O)/C(C)=C\C(C)C1OC` (stereo not drawn) was tested, and the T/C (dose: 2.5 mg/kg/injection, schedule: Q01DX009 (ip), vehicle: Klucel (hydroxypropylcellulose) (HPC)) was 176 % of control and 187 % of control, the T/C [13] was 177 % of control and 208 % of control and the T/C (dose: 5.0 mg/kg/injection, schedule: Q01DX009 (ip), vehicle: saline + alcohol) was 242 % of control.

In the case of `COc1ccc(CCN2C(=O)CSC2=S)cc1OC`, the T/C [14] is reported as 100 % of control, the T/C [15] is reported as 88 % of control and the T/C [9] is reported as 94 % of control and 98 % of control. For the same molecule, the T/C [8] was 89 % of control and 94 % of control, the T/C [10] was 104 % of control and the T/C [1] was 89 % of control. The T/C [11] was 90 % of control and 94 % of control and the T/C [2] was 94 % of control.

For `C=C(C)[C@@H]1CC[C@]2(C)CC[C@]3(C)[C@H](CC[C@@H]4[C@@]5(C)CC[C@H](O)C(C)(C)[C@@H]5CC[C@]43C)[C@@H]12`, the T/C (dose: 0.75 mg/kg/injection, schedule: Q01DX009 (ip), vehicle: Klucel (hydroxypropylcellulose) (HPC)) was 101 % of control, the T/C (dose: 1.5 mg/kg/injection, schedule: Q01DX009 (ip), vehicle: Klucel (hydroxypropylcellulose) (HPC)) was 95 % of control and the T/C (dose: 3.0 mg/kg/injection, schedule: Q01DX009 (ip), vehicle: Klucel (hydroxypropylcellulose) (HPC)) was 95 % of control.

In the case of `Cn1c2ccccc2c(=O)c2ccc(Cl)cc21`, the T/C [14] is reported as 97 % of control, the T/C [15] is reported as 97 % of control and the T/C [8] is reported as 91 % of control.

`CCC(=S)Nc1ccc(Cl)cc1` was tested, and the T/C (dose: 25.0 mg/kg/injection, schedule: Q01DX009 (ip), vehicle: carboxymethylcellulose (CMC)) was 100 % of control, the T/C (dose: 50.0 mg/kg/injection, schedule: Q01DX009 (ip), vehicle: carboxymethylcellulose (CMC)) was 107 % of control and the T/C (dose: 100.0 mg/kg/injection, schedule: Q01DX009 (ip), vehicle: carboxymethylcellulose (CMC)) was 103 % of control.

For `COC(=O)C(N)Cc1ccc(O)c(O)c1` (stereo not drawn), the T/C (dose: 25.0 mg/kg/injection, schedule: Q08HX018 (ip), vehicle: water) was 122 % of control, the T/C (dose: 50.0 mg/kg/injection, schedule: Q08HX018 (ip), vehicle: water) was 111 % of control and the T/C (dose: 50.0 mg/kg/injection, schedule: Q08HX030 (ip), vehicle: saline) was 99 % of control. For the same molecule, the T/C (dose: 100.0 mg/kg/injection, schedule: Q01DX012 (ip), vehicle: saline) was 102 % of control, the T/C (dose: 100.0 mg/kg/injection, schedule: Q01DX014 (ip), vehicle: saline) was 102 % of control and the T/C (dose: 100.0 mg/kg/injection, schedule: Q08HX018 (ip), vehicle: water) was 110 % of control. For the same molecule, the T/C (dose: 100.0 mg/kg/injection, schedule: Q08HX030 (ip), vehicle: saline) was 104 % of control, the T/C (dose: 200.0 mg/kg/injection, schedule: Q01DX012 (ip), vehicle: saline) was 104 % of control and the T/C (dose: 200.0 mg/kg/injection, schedule: Q01DX014 (ip), vehicle: saline) was 104 % of control. For the same molecule, the T/C (dose: 200.0 mg/kg/injection, schedule: Q08HX018 (ip), vehicle: water) was 113 % of control, the T/C (dose: 200.0 mg/kg/injection, schedule: Q08HX030 (ip), vehicle: saline) was 111 % of control and the T/C (dose: 400.0 mg/kg/injection, schedule: Q01DX012 (ip), vehicle: saline) was 120 % of control. The T/C (dose: 400.0 mg/kg/injection, schedule: Q01DX014 (ip), vehicle: saline) was 118 % of control and the T/C (dose: 400.0 mg/kg/injection, schedule: Q08HX030 (ip), vehicle: saline) was 107 % of control.

`NC(=O)c1csc(C2OC(CO)C(O)C2O)n1` (stereo not drawn) was tested, and the T/C (dose: 25.0 mg/kg/injection, schedule: Q01DX009 (ip), vehicle: water) was 103 % of control, the T/C (dose: 50.0 mg/kg/injection, schedule: Q01DX009 (ip), vehicle: water) was 99 % of control and the T/C (dose: 100.0 mg/kg/injection, schedule: Q01DX009 (ip), vehicle: water) was 104 % of control. The T/C (dose: 200.0 mg/kg/injection, schedule: Q01DX009 (ip), vehicle: water) was 111 % of control, the T/C (dose: 400.0 mg/kg/injection, schedule: Q01DX009 (ip), vehicle: water) was 110 % of control and the T/C (dose: 800.0 mg/kg/injection, schedule: Q01DX009 (ip), vehicle: water) was 99 % of control.

`O=[N+]([O-])c1ccc([I+]c2ccccc2)cc1` was tested, and the T/C (dose: 12.5 mg/kg/injection, schedule: Q01DX009 (ip), vehicle: Klucel (hydroxypropylcellulose) (HPC)) was 115 % of control, the T/C (dose: 12.5 mg/kg/injection, schedule: Q01DX009 (ip), vehicle: saline with Tween-80) was 113 % of control and the T/C [14] was 118 % of control. The T/C (dose: 25.0 mg/kg/injection, schedule: Q01DX009 (ip), vehicle: saline with Tween-80) was 112 % of control.

In the case of `CCC[CH2][Sn]([CH2]CCC)[CH2]CCC.CCC[CH2][Sn]([CH2]CCC)[CH2]CCC`, the T/C [13] is reported as 109 % of control.

`NNC(=O)c1ccc(N)cc1` was tested, and the T/C [9] was 112 % of control, the T/C [10] was 102 % of control and the T/C [11] was 97 % of control.

`O=[N+]([O-])OCc1c(Cl)nc(Cl)c(Cl)c1Cl` was tested, and the T/C (dose: 15.0 mg/kg/injection, schedule: Q01DX009 (ip), vehicle: Klucel (hydroxypropylcellulose) (HPC)) was 111 % of control, the T/C (dose: 30.0 mg/kg/injection, schedule: Q01DX009 (ip), vehicle: Klucel (hydroxypropylcellulose) (HPC)) was 108 % of control and the T/C (dose: 60.0 mg/kg/injection, schedule: Q01DX009 (ip), vehicle: Klucel (hydroxypropylcellulose) (HPC)) was 88 % of control.

`CC[As](=O)(O)CC` was tested, and the T/C [6] was 97 % of control, the T/C [7] was 103 % of control and the T/C [12] was 105 % of control.

With `NCC(=O)Nc1ccc(O)cc1` the T/C (dose: 150.0 mg/kg/injection, schedule: Q01DX009 (ip), vehicle: saline) was 94 % of control and the T/C (dose: 300.0 mg/kg/injection, schedule: Q01DX009 (ip), vehicle: saline) was 105 % of control.

`c1ccc([C@H]2CN3CCSC3=N2)cc1` was tested, and the T/C (dose: 0.15 mg/kg/injection, schedule: Q01DX009 (ip), vehicle: saline) was 97 % of control, the T/C (dose: 0.31 mg/kg/injection, schedule: Q01DX009 (ip), vehicle: saline) was 89 % of control and 102 % of control and the T/C (dose: 0.63 mg/kg/injection, schedule: Q01DX009 (ip), vehicle: saline) was 102 % of control. For the same molecule, the T/C (dose: 1.25 mg/kg/injection, schedule: Q01DX009 (ip), vehicle: saline) was 102 % of control, the T/C (dose: 2.5 mg/kg/injection, schedule: Q01DX009 (ip), vehicle: saline) was 103 % of control and the T/C (dose: 5.0 mg/kg/injection, schedule: Q01DX009 (ip), vehicle: saline) was 89 % of control. For the same molecule, the T/C (dose: 10.0 mg/kg/injection, schedule: Q01DX009 (ip), vehicle: saline) was 89 % of control, the T/C (dose: 20.0 mg/kg/injection, schedule: Q01DX009 (ip), vehicle: saline) was 107 % of control and the T/C (dose: 40.0 mg/kg/injection, schedule: Q01DX009 (ip), vehicle: saline) was 86 % of control.

Reference: PubChem BioAssay AID192 (DTP/NCI, 2004)
